Data set [1] deals with human melanoma A375 xenograft. The experiment in a line: In vivo anti-tumor efficacy, A375 xenograft. Details: species or system nude mouse. The text has this:
3 × 10^6 A375 cells were implanted into the left-side dorsal flank of each nude mouse (n = 5) to establish the human melanoma A375 tumor xenograft model as described previously. Compound 4g were first dissolved in DMSO then diluted by 2% methylcellulose PBS buffer. The proportion of DMSO in final solution was kept at lower than 5%. Mice body weight and the size of tumor were closely monitored during the 3 week continuous treatment (i.p. injection, one dose per day, five days per week). At the end point of the treatment, mice were sacrificed after anesthesia. A375 tumor tissues were isolated then freshly lysed on ice to check the targeted protein levels through Western blotting.
A375 tumor tissues collected from the in vivo efficacy study in the above were fixed in formalin phosphate buffer for one week. Then the tissues were processed to get paraffin embedded sections. TUNEL assay was performed using DeadEnd Fluorometric kit (Promega Corporation, Madison, WI) following manufacturer’s instructions. By the end of the experiment, VECTASHIELD Hard Set mounting medium with DAPI (Vector Lab, Inc., Burlingame, CA) was used to mount the tumor slides and stain the nuclei. The final slides were analyzed immediately under a fluorescence microscope (EVOS FL Cell Imaging System, Thermo Fisher Scientific Inc., NY).

Another data set concerns XIAP, cIAP1 or cIAP2. As to the kind of experiment: DARTS assay, other IAPs. The class given is binding, human. The note with it: 20 μM, pronase-digested A375 or M14 cell lysates. The method, then:
(§1) Drug affinity responsive target stability (DARTS) assay was performed to identify the protein targets of UC-112 analogs in A375 or M14 cell lysates following the protocols described in the literature. Briefly, A375 or M14 lysates were prepared in non-denaturing M-PER lysis buffer (Thermo Fisher Scientific, Waltham, MA) with protease and phosphatase inhibitors. Then TNC (Tris, NaCl, CaCl2) buffer was added into cell lysates before the total protein concentration of lysate being determined by BCA protein assay kit (Thermo Fisher Scientific, Waltham, MA). The lysates were split into two groups: one group was added with compound of interest solution, the other group was added with same amount of vehicle (DMSO). The samples were mixed thoroughly and incubated at room temperature for 1 h. Then 10 mg/mL pronase stock solution was added into both compound treated or vehicle control groups to achieve the final dilution of 1:100, 1:300, 1:1000 and 1:3000. One aliquot of each group was kept as un-digested control. The proteolysis was performed at room temperature for 30 min before ice cold protease inhibitor stock being added into the mixture. Then SDS loading buffer was added into all the samples and heated to 70°C for 10 min. Finally, the results were analyzed by SDS-PAGE and immunoblotting.

The target in data set [2] is T1, survivin (Homo sapiens, UniProt O15392).
T1 construct: endogenous in cells; host or cells: A375 cells
As to the kind of experiment: Western blotting of survivin level, A375 cells. The class given is cell-based. Here is the method:
Lysates of A375 cells treated by the compound solution for 24 h were used to determine the change of IAP protein levels through western blotting. Primary rabbit antibodies against survivin, XIAP, cIAP1, cIAP2, livin and GAPDH were purchased from Cell Signaling Technology, Inc. (Danvers, MA) and used according to manufacture instructions as reported previously. Protein lane intensities were quantified by ImageJ software (US National Institutes of Health, Bethesda, MD).

A further data set has as its system M14. The experiment in a line: Cell viability (MTS) anti-proliferative assay, M14. The class given is cell-based. The conditions noted are these: M14 human melanoma, 48 h treatment, n = 4, read-out: IC50 values ± SEM, M14. Here is the method: The anti-proliferative effect of UC-112 and its analogs were tested in human melanoma (A375, M14 and M14/LCC6MDR1) and human prostate cancer (PC-3) cell lines. All the cell lines were purchased from ATCC (American Type Culture Collection, Manassas, VA). The cancer cells were cultured using the supplemented cell culture medium as described before at 37°C in a humidified atmosphere containing 5% CO2. 5000 cells in logarithm growing phase were seeded overnight into each well of a 96-well plate. Then the cells were continuously incubated with sequential diluted compound solution (10 nM to 100 μM, 100 μl per well) in cell culture medium.

The target of data set [3] is T1, survivin. As to the kind of experiment: DARTS assay, survivin. The class given is binding. The conditions noted are these: 20 μM, pronase-digested A375 or M14 cell lysates. The method, then: as §1
The next data set relates to HCT-15 (colon cancer). As to the kind of experiment: NCI-60 five dose screening, HCT-15. The class given is cell-based. The conditions noted are these: Homo sapiens, colon cancer HCT-15. The method, then:
(§2) Four compounds including the parental compound UC-112 were submitted to National Cancer Institute for its NCI-60 cell line screening, initially tested at one concentration (10 μM), and subsequently selected for full five concentration testing following the standard protocols disclosed by NCI [34]. In brief, cells were plated into 96 well micro-titer plates 24 h prior to the treatment of compound solution for 48 h, then the cell viability was read out through absorbance of sulforhodamine B (SRB) staining.

The next data set concerns NCI-60 cell lines. The experiment in a line: NCI-60 cell line screening (SRB), whole panel. The class given is cell-based, human. The method, then:
as §2

The target in data set [4] is T1, survivin. The experiment in a line: Western blotting of survivin level, PC-3 cells. The note with it: 24 h. The class given is cell-based.
A further data set concerns the target T2, CYP2C9 (Homo sapiens, UniProt P11712).
T2 construct: tissue Eurofins Panlabs Inc. (contract research service) Study Number 100017964; host or cells: human liver microsomes
The experiment in a line: Cytochrome P450 inhibition, CYP2C9. The conditions noted are these: probe diclofenac, substrate diclofenac, human liver microsomes 0.1 mg/mL, read-out: % inhibition of control values, CYP2C9. The class given is in vitro ADME. The method, then:
All these experiments were performed by a contract research service company, Eurofins Panlabs Inc. (Study Number 100017964). Aqueous solubility (μM) was determined using the shake-flask method by comparing the peak area of the principal peak in a calibration standard (200 μM) containing organic solvent (methanol/water, 60/40, v/v) with the peak area of the corresponding peak in a buffer sample. Metabolic stability study was carried out by incubating compound 4g with human liver microsomes. Metabolic stability which is expressed as percent of the parent compound remaining, was calculated by comparing the peak area of the compound at the time point relative to that at time-0. The half-life (T1/2) was estimated from the slope of the initial linear range of the logarithmic curve of compound remaining (%) vs. time. In the cytochrome P450 inhibition study, human liver microsomes (0.1 mg/mL) were incubated with different substrates and compound 4g for 10 minutes. After the incubation, peak areas corresponding to the metabolite of each substrate were recorded. The percent of control activity was then calculated by comparing the peak area obtained in the presence of compound 4g to that obtained in the absence of compound 4g. Subsequently, the percent inhibition was calculated by subtracting the percent control activity from 100.

Structures are written as SMILES.

T1 sequence (O15392 whole entry): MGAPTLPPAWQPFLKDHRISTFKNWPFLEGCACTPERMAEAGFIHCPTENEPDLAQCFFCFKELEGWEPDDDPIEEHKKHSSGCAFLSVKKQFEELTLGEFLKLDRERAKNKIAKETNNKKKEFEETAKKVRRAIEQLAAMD
T2 sequence (P11712 whole entry): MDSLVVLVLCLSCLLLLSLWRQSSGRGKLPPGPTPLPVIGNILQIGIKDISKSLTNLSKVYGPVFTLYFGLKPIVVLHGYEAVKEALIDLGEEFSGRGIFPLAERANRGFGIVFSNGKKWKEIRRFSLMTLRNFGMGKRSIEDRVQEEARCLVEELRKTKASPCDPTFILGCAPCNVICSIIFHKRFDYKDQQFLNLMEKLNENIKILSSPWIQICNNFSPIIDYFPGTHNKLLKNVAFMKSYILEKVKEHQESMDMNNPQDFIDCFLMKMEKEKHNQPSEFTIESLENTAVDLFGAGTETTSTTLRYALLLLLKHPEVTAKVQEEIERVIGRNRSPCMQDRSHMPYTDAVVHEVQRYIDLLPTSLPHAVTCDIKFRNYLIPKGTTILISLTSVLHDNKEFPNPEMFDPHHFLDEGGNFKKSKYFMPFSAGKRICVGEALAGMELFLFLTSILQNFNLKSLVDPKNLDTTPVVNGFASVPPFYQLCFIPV

On to `CC(C)c1ccc(COCc2cc(CN3CCCC3)c(O)c3ncccc23)cc1` [4g, 5-(((4-isopropylbenzyl)oxy)methyl)-7-(pyrrolidin-1-ylmethyl)quinolin-8-ol], for which the “Tumor growth slower than vehicle control group, 20 mg/kg” value in [1] (20 mg/kg i.p., three weeks, A375 xenograft) is reported as 53%. Further, in data set [1] (40 mg/kg i.p., three weeks, A375 xenograft), the “Tumor growth slower than vehicle control group, 40 mg/kg” value worked out at 79%. The “TUNEL assay of tumor tissues” value in data set [1] (40 mg/kg, formalin-fixed tumor sections) is listed as “widely-spread cell apoptosis”. Also, the “Expression levels of survivin and XIAP protein in tumor tissues” value in data set [1] (Western blotting of A375 xenograft tumor tissues from treated groups) is “decreased”. Further, the Mice body weight entry in data set [1] (three weeks i.p. treatment) is listed as “without causing obvious decrease of mice body weight”. Also, in the data set with XIAP, cIAP1 or cIAP2, the “Effect on protease susceptibility of other IAPs (DARTS)” value is “negligible effects”. For the same compound, the “Reduction of survivin level, A375” value on survivin [2] (300 nM, 24 h, A375 cells, lane density by ImageJ) is on record as “over 50%”. Besides, the “IC50 values for survivin inhibition” value at survivin [2] (estimated from western blotting, A375 and PC-3 cells) was “low nanomolar range”. In addition, on survivin [2] (gradient increasing dose, 24 h, A375 cells), the “Effect on survivin level, A375” value is listed as “dose-dependently suppressed survivin level”. The half-inhibitory concentration (IC50) in the data set on M14 came to 800 ± 200 nM. The “Protease susceptibility of survivin (DARTS)” value on survivin [3] is on record as “significantly reduced”. Besides, the GI50 in the data set with HCT-15 (colon cancer) is 46.8 nM; in the data set on NCI-60 cell lines (Homo sapiens, five dose testing, 48 h, SRB, read-out: Average GI50 over all cancer cell lines in the NCI-60 panel), 500 nM. Further, in the data set with NCI-60 cell lines (one concentration, 10 μM), the “Activity in NCI-60 one-concentration screening” value is listed as “good activity”. For the same compound, at survivin [4] (300 nM, lane density by ImageJ), the “Reduction of survivin level, PC-3” value is “over 50%”. Further, the “Effect on survivin level, PC-3” value on survivin [4] (gradient increasing dose) is listed as “dose-dependently suppressed survivin level”. In addition, the inhibition at 10 min on CYP2C9 was 17%.

Source of the values: PMC4466525, “Design, Synthesis and Structure-Activity Relationship Studies of Novel Survivin Inhibitors with Potent Anti-Proliferative Properties” (PLoS ONE, 2015).
